In patent publication US20240360114A1 (SIRONAX LTD., priority 2021, published 2024):

Tested on: HT-1080 cells
Assay: HT-1080 cell viability assay (ferroptosis induced by RSL3, Cell Titer-Glo)
Type: cell-based
Conditions: Homo sapiens, HT-1080, 20 h, ferroptosis inducer RSL3, 20 hours, ferroptosis inhibitory activity, Table 2
Method in brief: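 Cells seeded overnight, then co-treated with RSL3 and compound (3-fold, 10-point dilution, top 1.1 μM) for 20 hours. Viability by CellTiter-Glo luminescence, normalized to untreated controls; EC50 from sigmoidal non-linear regression.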

SMILES	EC50
CC(C)C1CCN(c2ncc(NC[C@H]3CC[C@H](NC(=O)C4CNC(=O)C4)CC3)cn2)CC1 (stereo partly shown) [Compound 367, N-((1r,4r)-4-(((2-(4-isopropylpiperidin-1-yl)pyrimidin-5-yl)amino)methyl)cyclohexyl)-5-oxopy rrolidine-3-carboxamide]	0.1 to 100 nM
CC(C)C1CCN(c2ncc(NC3C4CC5CC3CC(N)(C5)C4)cn2)CC1 (stereo not shown) [Compound 368, N4-(2-(4-isopropylpiperidin-1-yl)pyrimidin-5-yl)adamantane-1,4-diamine]	0.1 to 100 nM
CCC(C)(C)c1ccc(NC2CC3(CC(N)C3)C2)cc1 (stereo not shown) [Compound 369, N2-(4-(tert-pentyl)phenyl)spiro[3.3]heptane-2,6-diamine]	0.1 to 100 nM
CC(C)C1CCN(c2ncc(NC3C4CC5CC3CC(CN)(C5)C4)cn2)CC1 (stereo not shown) [Compound 370, N-(5-(aminomethyl)adamantan-2-yl)-2-(4-isopropylpiperidin-1-yl)pyrimidin-5-amine]	0.1 to 100 nM
Cc1nc(N2CCC(C(F)(F)F)CC2)ccc1NC[C@H]1CC[C@H](N)CC1 [Compound 371, N-(((1r,4r)-4-aminocyclohexyl)methyl)-2-methyl-6-(4-(trifluoromethyl)piperidin-1-yl)pyridin-3-amine]	0.1 to 100 nM
NC1C[C@@H]2CC(Nc3ccc(N4CCC(C(F)(F)F)CC4)cc3F)C[C@@H]2C1 (stereo partly drawn) [Compound 372, (3aR, 6aS)-N2-(2-fluoro-4-(4-(trifluoromethyl)piperidin-1-yl)phenyl)octahydropentalene-2,5-di amine]	0.1 to 100 nM
CCNC1C[C@@H]2CC(Nc3ccc(N4CCC(C(F)(F)F)CC4)cc3F)C[C@@H]2C1 (stereo partly drawn) [Compound 373, (3aR,6aS)-N2-ethyl-N5-(2-fluoro-4-(4-(trifluoromethyl)piperidin-1-yl)phenyl)octahydropentalene-2,5-diamine]	0.1 to 100 nM
O=C1NCC(C(=O)NC2CC3(C2)CC(Nc2ccc(N4CCC(C(F)(F)F)CC4)cc2)C3)N1 (stereo not shown) [Compound 374, 2-oxo-N-(6-((4-(4-(trifluoromethyl)piperidin-1-yl)phenyl)amino)spiro[3.3]heptan-2-yl)imidazo lidine-4-carboxamide]	0.1 to 100 nM
O=C1CC(C(=O)NC2CC3(C2)CC(Nc2ccc(N4CCC(C(F)(F)F)CC4)cc2)C3)CN1 (stereo not shown) [Compound 375]	0.1 to 100 nM
Cc1nc(N2CCC(C(F)(F)F)CC2)ccc1NC1CC2(CC(N)C2)C1 (stereo not shown) [Compound 376, N2-(2-methyl-6-(4-(trifluoromethyl)piperidin-1-yl)pyridin-3-yl) spiro[3.3]heptane-2,6-diamine]	0.1 to 100 nM
Cc1nc(N2CCC(C(F)(F)F)CC2)ccc1NC1CCC(CNC(=O)C2CNC(=O)C2)CC1 (stereo not shown) [Compound 377, N-((4-((2-methyl-6-(4-(trifluoromethyl)piperidin-1-yl)pyridin-3-yl)amino)cyclohexyl)methyl)-5-oxopyrrolidine-3-carboxamide]	0.1 to 100 nM
Cc1nc(N2CCC(C(F)(F)F)CC2)ccc1NC[C@H]1CC[C@H](NC(=O)C2CNC(=O)C2)CC1 (stereo partly shown) [Compound 378, N-((1r,4r)-4-(((2-methyl-6-(4-(trifluoromethyl)piperidin-1-yl)pyridin-3-yl)amino)methyl)cyclohexyl)-5-oxopyrrolidine-3-carboxamide]	0.1 to 100 nM
Cc1cc(N2CCCCC2)ccc1NC[C@H]1CC[C@H](N)CC1 [Compound 379, N-(((1r,4r)-4-aminocyclohexyl)methyl)-2-methyl-4-(piperidin-1-yl)aniline]	0.1 to 100 nM
Cc1cc(N2CCCCC2)ccc1NC1CC2(CC(N)C2)C1 (stereo not shown) [Compound 380, N2-(2-methyl-4-(piperidin-1-yl)phenyl)spiro[3.3]heptane-2,6-diamine]	0.1 to 100 nM
Cc1cc(N2CCC(C)(C)CC2)ccc1NC1CCC(N)CC1 (stereo not shown) [Compound 381, N1-(4-(4,4-dimethylpiperidin-1-yl)-2-methylphenyl)cyclohexane-1,4-diamine]	0.1 to 100 nM
Cc1cc(N2CCC(C)(C)CC2)ccc1NC[C@H]1CC[C@H](N)CC1 [Compound 382, N-(((1r,4r)-4-aminocyclohexyl)methyl)-4-(4,4-dimethylpiperidin-1-yl)-2-methylaniline]	0.1 to 100 nM
Cc1cc(N2CCC(C(F)(F)F)CC2)ccc1NCC[C@H]1CC[C@H](N)CC1 [Compound 383, N-(2-((1r,4r)-4-aminocyclohexyl)ethyl)-2-methyl-4-(4-(trifluoromethyl)piperidin-1-yl)aniline]	0.1 to 100 nM
NC1CCC(Nc2cccc(N3CCC(C(F)(F)F)CC3)c2)CC1 (stereo not shown) [Compound 384, N1-(3-(4-(trifluoromethyl)piperidin-1-yl)phenyl)cyclohexane-1,4-diamine]	100 to 1000 nM
CCN(CCCOC)c1ccc(NC[C@H]2CC[C@H](N)CC2)cc1 [Compound 385, N1-(((1r,4r)-4-aminocyclohexyl)methyl)-N4-ethyl-N4-(3-methoxypropyl) benzene-1,4-diamine]	100 to 1000 nM
CCCCCN(CC)c1ccc(NC[C@H]2CC[C@H](N)CC2)cc1 [Compound 386, N1-(((1r,4r)-4-aminocyclohexyl)methyl)-N4-ethyl-N4-pentylbenzene-1,4-diamine]	0.1 to 100 nM
Cc1cc(N2CC(C)OC(C)C2)ccc1NC[C@H]1CC[C@H](N)CC1 (stereo partly shown) [Compound 387, N-(((1r,4r)-4-aminocyclohexyl)methyl)-4-(2,6-dimethylmorpholino)-2-methylaniline]	0.1 to 100 nM

Further lines, results first:

EC50	SMILES
0.1 to 100 nM	CC(C)C1CCN(c2ncc(NC3C4CC5CC3CC(C(N)=O)(C5)C4)cn2)CC1 (stereo not shown) [Compound 388, 4-((2-(4-isopropylpiperidin-1-yl)pyrimidin-5-yl)amino)adamantane-1-carboxamide]
0.1 to 100 nM	CCC1CCN(c2ccc(NC[C@H]3CC[C@H](N)CC3)c(C)c2)CC1 [Compound 389, N-(((1r,4r)-4-aminocyclohexyl)methyl)-4-(4-ethylpiperidin-1-yl)-2-methylaniline]
0.1 to 100 nM	CCC1CCN(c2ccc(NC3CCC(N)CC3)c(C)c2)CC1 (stereo not shown) [Compound 390, N1-(4-(4-ethylpiperidin-1-yl)-2-methylphenyl)cyclohexane-1,4-diamine]
0.1 to 100 nM	Cc1cc(N2CCC(C(F)(F)F)CC2)cc(C)c1NCC[C@H]1CC[C@H](N)CC1 [Compound 391, N-(2-((1r,4r)-4-aminocyclohexyl)ethyl)-2,6-dimethyl-4-(4-(trifluoromethyl)piperidin-1-yl) aniline]
0.1 to 100 nM	Cc1cc(N2CCCCC2)ccc1NC1C[C@H]2CC(N)C[C@H]2C1 (stereo partly drawn) [Compound 392, (3aR,6aS)-N2-(2-methyl-4-(piperidin-1-yl)phenyl) octahydropentalene-2,5-diamine]
0.1 to 100 nM	Cc1cc(N(C)C)ccc1NC[C@H]1CC[C@H](N)CC1 [Compound 393, N^1-(((1r,4r)-4-aminocyclohexyl)methyl)-N4,N4,2-trimethylbenzene-1,4-diamine]
0.1 to 100 nM	N[C@H]1CC[C@H](CCNc2ccc(N3CCC(C(F)(F)F)CC3)cc2F)CC1 [Compound 394, N-(2-((1r, 4r)-4-aminocyclohexyl)ethyl)-2-fluoro-4-(4-(trifluoromethyl)piperidin-1-yl)aniline]
0.1 to 100 nM	N[C@H]1CC[C@H](CNc2ccc(N3CCC(C(F)(F)F)CC3)nc2F)CC1 [Compound 395, N-(((1r, 4r)-4-aminocyclohexyl)methyl)-2-fluoro-6-(4-(trifluoromethyl)piperidin-1-yl)pyridin-3-amine]
0.1 to 100 nM	CC1CCN(c2ncc(NC[C@H]3CC[C@H](N)CC3)cc2C(F)(F)F)CC1 [Compound 396, N-(((1r,4r)-4-aminocyclohexyl)methyl)-6-(4-methylpiperidin-1-yl)-5-(trifluoromethyl)pyridin-3-amine]
0.1 to 100 nM	NC1CC2(C1)CC(Nc1ccc(N3CCC(C(F)(F)F)CC3)nc1)C2 (stereo not shown) [Compound 397, N2-(6-(4-(trifluoromethyl)piperidin-1-yl)pyridin-3-yl)spiro[3.3]heptane-2,6-diamine]
0.1 to 100 nM	N[C@H]1CC[C@H](CNc2ccc(N3CCC(C(F)(F)F)CC3)nc2)CC1 [Compound 398, N-(((1r,4r)-4-aminocyclohexyl)methyl)-6-(4-(trifluoromethyl)piperidin-1-yl)pyridin-3-amine]
0.1 to 100 nM	CC(C)C1CCN(c2cnc(NC3CCC(N)CC3)cn2)CC1 (stereo not shown) [Compound 399, N1-(5-(4-isopropylpiperidin-1-yl)pyrazin-2-yl)cyclohexane-1,4-diamine]
1000 to 10000 nM	CC(C)C1CCN(c2cnc(NC3CCC(N)CC3)nc2)CC1 (stereo not shown) [Compound 400, N1-(5-(4-isopropylpiperidin-1-yl)pyrimidin-2-yl)cyclohexane-1,4-diamine]
0.1 to 100 nM	CC(C)C1CCN(c2ncc(NC3C[C@H]4CC(NO)C[C@H]4C3)cn2)CC1 (stereo partly drawn) [Compound 401, N-((3aR, 6aS)-5-(hydroxyamino)octahydropentalen-2-yl)-2-(4-isopropylpiperidin-1-yl) pyrimidin-5-amine]
0.1 to 100 nM	NC1CCCCC1Nc1ccc(N2CCC(C(F)(F)F)CC2)cc1 (stereo not shown) [Compound 402, N1-(4-(4-(trifluoromethyl)piperidin-1-yl)phenyl)cyclohexane-1,2-diamine]
0.1 to 100 nM	CC(C)C1CCN(c2ncc(NC3CC4(CC(NC(=O)C(N)=O)C4)C3)cn2)CC1 (stereo not shown) [Compound 403, N1-(6-((2-(4-isopropylpiperidin-1-yl)pyrimidin-5-yl)amino)spiro[3.3]heptan-2-yl)oxalamide]
0.1 to 100 nM	CC(C)C1CCN(c2ncc(NC3CCC(C(N)=O)CC3)cn2)CC1 (stereo not shown) [Compound 404, 4-((2-(4-isopropylpiperidin-1-yl)pyrimidin-5-yl)amino)cyclohexane-1-carboxamide]
0.1 to 100 nM	CC1CCN(c2ncc(NC3C4CC5CC3CC(C(N)=O)(C5)C4)cn2)CC1 (stereo not shown) [Compound 405, 4-((2-(4-methylpiperidin-1-yl)pyrimidin-5-yl)amino)adamantane-1-carboxamide]
0.1 to 100 nM	CC(C)C1CCN(c2ccc(NC3CCC(N)CC3)nc2)CC1 (stereo not shown) [Compound 406, N1-(5-(4-isopropylpiperidin-1-yl)pyridin-2-yl)cyclohexane-1,4-diamine]
